Measurements: patent US20150284812A1 (priority 2012, published 2015)
Where two headings read alike, the source gives them in different places.

Columns and labels:
[1] = test system: gene expression control region of the human CYP3A4 gene (EGFP reporter)
Procedure: (§1) Forty-eight hours later (corresponding to Day 14 of differentiation culture), the total area fluorescence intensities of EGFP and DsRed were analyzed under a fluorescence microscope (FIG. 16).

[2] = test system: gene expression control region of the human CYP3A7 gene (DsRed reporter)
Procedure: as §1

[3] = test system: CYP3A7; experiment: Expression of CYP3A7 upon cell damage, liver damage by a CYP-inducing drug in humanized CYP3A model mouse; format: in vivo; settings: versus corn oil administration control group, hepatocyte regeneration after liver damage
From the text: The expression of CYP3A7 during the injury of hepatocytes was examined by a method of liver regeneration after partial hepatectomy performed on 70% living liver, using a humanized CYP3A model mouse into which human CYP3A4 and CYP3A7 have been incorporated, a method of damaging the liver of the same mouse as described above by administration of a CYP-inducing drug, and a method of transplanting frozen human hepatocytes into the liver injury model mouse. In the method of liver regeneration after the partial hepatectomy, mice that were fed after 70% of the liver had been excised by ligating it with a cord were produced. Thereafter, the mice were successively subjected to dissection from Days 1 to 5 to collect the liver from each mouse, and gene expression was then examined. In the method of damaging the liver by administration of a CYP-inducing drug, the liver was excised from each mouse belonging to a PCN administration group and a corn oil administration control group, and gene expression was then examined. In the method of transplanting frozen human hepatocytes into the living mouse, a part of the humanized mouse liver was obtained from PhenixBio, and gene expression was then examined.

[4] = test system: HepaRG cells
[5] = test system: CYP3A7-DsRed; experiment: Liver injury test using CYP3A4+/7R MAC-introduced mice, observation under fluorescence microscope; format: in vivo, mouse; settings: 8 weeks old mice; 5% carbon tetrachloride dissolved in DMSO; observed for 3 days
From the text: The CYP3A4+/7MAC-introduced mice produced in Example 5 strongly expressed DsRed for several weeks after the birth. […] In the CYP3A4+/7R MAC-introduced mice, EGFP functions as a marker showing introduction of MAC in the cells.

[6] = test system: CYP3A7-DsRed; experiment: Liver injury test using CYP3A4+/7R MAC-introduced mice, analysis by quantitative RT-PCR; format: in vivo, mouse; settings: adult mice; 5% carbon tetrachloride; Days 1, 2 and 3 versus non-administered (Day 0)
Procedure: Using RNAs extracted from the livers of the CYP3A4+/7R MAC-introduced mice to which 5% carbon tetrachloride had been administered in Test Example 11 and non-administered (Day 0) mice, an increase in the expression of DsRed on Days 1, 2 and 3 after the administration was analyzed by quantitative RT-PCR (FIG. 19).

CC(=O)[C@H]1[C@H](C#N)C[C@H]2[C@@H]3CC=C4C[C@@H](O)CC[C@]4(C)[C@H]3CC[C@@]21C [PCN, pregnenolone 16α-carbonitrile]
expression of EGFP (total area fluorescence intensity) [1]: non-inducibility
fluorescence intensity of DsRed ([2]; HepaRG clone C3, drug in 1% DMSO, 48 hours, DMSO control group = 1): increase
expression of CYP3A7 in liver [3]: transiently increased
cellular damage to HepaRG cells ([4]; HepaRG cells): high cellular damage

ClC(Cl)(Cl)Cl [carbon tetrachloride]
fluorescence intensity of DsRed in the liver [5]: increase
expression of DsRed in the liver (quantitative RT-PCR) [6]: increases

Clc1ccccc1C(c1ccccc1)(c1ccccc1)n1ccnc1 [clotrimazole]
expression of EGFP (total area fluorescence intensity) [1]: induced
fluorescence intensity of DsRed [2]: increase
cellular damage to HepaRG cells [4]: high cellular damage
